Assay results reported in patent publication US11674951B2, “Methods for identifying a treatment for rheumatoid arthritis” (The Brigham and Women's Hospital, Inc., priority 2017, dated 2023).
Where “and” joins values, the source holds several entries; their conditions need not be identical. Equal entries are not always repeated.

Experiments:
[1] = system: PTPN22 transcripts in PBMC; experiment: Anti-CD3 antibody induced PTPN22 transcript level in PBMC in absence or presence of drug (RT-PCR, drug/no-drug ratio); type: cell-based, human; conditions: anti-CD3 2.5 ug/ml, 24 hours
Description: PBMCs (1 million cells) of these subjects that were collected before the treatment were stimulated in vitro with anti-CD3 antibodies (2.5 ug/ml) in the absence or presence of corresponding drug (etanercept 250 ug/ml, adalimumab 100 ug/ml) for 24 hours. PBMC from subject BW34 was tested separately with etancercept and adalimumab. RNA was harvested from the stimulated cells and the level of PTPN22 transcripts was quantified with RT-PCR.
The PTPN22 level from cells stimulated in the presence of drug was then divided by the level obtained from cells stimulated in the absence of drug. This drug/no-drug ratio calculated from the 9 drug responders ranged from 1.67 to 2.5, whereas the ratio calculated from the 6 drug non-responders ranged from 0.86 to 1.35 (FIG. 4 and Table 1). […]

active RA patients = experiment: Clinical response of active RA patients (CPIRA study) by Clinical Disease Activity Index (CDAI); type: in vivo, human; set-up: key to 2nd visit CDAI / ΔCDAI: CDAI = SJC(28)+TJC(28)+PGA+EGA; PGA/EGA on 1-10, 10 = maximal activity; conditions: for ΔCDAI: 1st visit minus 2nd visit CDAI; for 2nd visit CDAI: 12 weeks after the treatment started; for number of treated subjects who did not respond (CDAI definition) / number of treated subjects who responded (CDAI definition): seven CPIRA subjects treated per drug
Source text: The Clinical Disease Activity Index (CDAI) is a useful clinical composite score for patients with rheumatoid arthritis. In some embodiments, it can be determined by the following formula: CDAI=SJC(28)+TJC(28)+PGA+EGA, wherein SJC(28) is Swollen 28-Joint Count (shoulders, elbows, wrists, MCPs, PIPs including thumb IP, knees), TJC(28) is Tender 28-Joint Count (shoulders, elbows, wrists, MCPs, PIPs including thumb IP, knees), PGA is Patient Global disease Activity (patient's self assessment of overall RA disease activity on a scale 1-10 where 10 is maximal activity), and EGA is Evaluator's Global disease Activity (evaluator's assessment of overall RA disease activity on a scale 1-10 where 10 is maximal activity). In some embodiments, a subject with an RA can have a CDAI that is equal to or greater than 5, 10, 15, or 20. In some embodiments, the subject has an active RA, and a subject with an active RA can have a CDAI that is equal to or greater than 10. A CDAI that is equal to or greater than 10 often indicates moderate or severe RA.
Active RA patients were recruited through the Central Pain in Rheumatoid Arthritis (CPIRA) study. The PBMC were collected from active RA patients at the time when they switched or started a new RA treatment and were also collected 12 weeks after the treatment started.
PBMC collected from 14 CPIRA subjects before they started either etanercept or adalimumab were analyzed (Table 1). Seven of the […] subjects were treated by etanercept.
The responsiveness to treatment was determined by the following definition.
CDAI decrease>=12 for those with baseline CDAI>22,
CDAI decrease>=6 for those with baseline CDAI>=10,
CDAI decrease>=1 for those with baseline CDAI<10.

[2] = adalimumab non-responders, one value per subject: BW34, BW83
[3] = adalimumab responders, one value per subject: BW32, BW57, BW85, BW89, BS137
[4] = etanercept non-responders, one value per subject: BW53, BW80, BW116
[5] = etanercept responders, one value per subject: BW39, BW56, BW82, BW110

| Substance | PTPN22 Drug/no-drug ratio ([1]; PBMC of adalimumab non-responders collected before treatment, adalimumab 100 ug/ml, one value per subject: BW34, BW83) | PTPN22 Drug/no-drug ratio ([1]; PBMC of adalimumab responders collected before treatment, adalimumab 100 ug/ml, one value per subject: BW32, BW57, BW85, BW89, BS137) | ΔCDAI (active RA patients; [2]) | 2nd visit CDAI (active RA patients; [2]) | ΔCDAI (active RA patients; [3]) | 2nd visit CDAI (active RA patients; [3]) | number of treated subjects who did not respond (CDAI definition) (active RA patients) | number of treated subjects who responded (CDAI definition) (active RA patients) | PTPN22 Drug/no-drug ratio ([1]; PBMC of etanercept non-responders collected before treatment, etanercept 250 ug/ml, one value per subject: BW53, BW80, BW116, BW34*) | PTPN22 Drug/no-drug ratio ([1]; PBMC of etanercept responders collected before treatment, etanercept 250 ug/ml, one value per subject: BW39, BW56, BW82, BW110) | ΔCDAI (active RA patients; [4]) | 2nd visit CDAI (active RA patients; [4]) | ΔCDAI (active RA patients; [5]) | 2nd visit CDAI (active RA patients; [5]) |
| --- | --- | --- | --- | --- | --- | --- | --- | --- | --- | --- | --- | --- | --- | --- |
| adalimumab | 1.17 and 0.93 | 1.82 and 1.77 and 1.97 and 2.37 and 1.67 | 4.8 and 1 | 24.2 and 13 | 15.2 and 10 and 21 and 23 and 13 | 0 and 9 and 25 and 34 and 18 | two | five | – | – | – | – | – | – |
| etanercept | – | – | – | – | – | – | three | Four | 0.86 and 1.18 and 1.23 and 1.35 | 2.14 and 2.04 and 1.82 and 2.5 | 1.5 and −0.5 and 6 | 25.5 and 21.5 and 23 | 12.5 (2×) and 9 and 23 | 0 and 6.5 and 6 and 12 |
